Test results taken from patent publication US20030232994A1, “Bicyclic thiophene derivatives and combinatorial libraries thereof” (priority 2001, published 2003).

System: Streptococcus pyogenes (ATCC# 97-03 14289)
Test: Anti-microbial screen (growth inhibition, OD 570 nm)
Assay type: cell-based
Conditions: growth in Todd Hewitt Broth, plates read at 570 nm at 0 time and 4 hours, color corrected
Experimental: Streptococcus pyogenes (ATCC# 97-03 14289) was grown in Todd Hewitt Broth (THB) (Difco Laboratories #0492-17-6) overnight until reaching an optical density of (OD=0.636 @ 570 nm) by reading 0.1 ml in a 96 well microtiter plate in a Molecular Devices Thermomax. This preparation was kept frozen as stocks in 30% v/v glycerol in 1.5 ml aliquots at −70^mC. until use. Prior to experiments, […] aliquots were thawed and diluted into 50 ml 2×THB. 60 ul of this dilution was added to 92 wells of microtiter plate. To three wells THB (200 ul) was added to serve as a blank and a sterility control. Test compounds in DMSO and appropriate concentrations of DMSO were added to Growth/Solvent Controls at 0 time. Plates were read at 0 time at 570 nm in the Molecular Devices plate reader to obtain compounds correction factors for insoluble or colored compounds. Plates were read again at 4 hours.
Percent inhibition is calculated with the following formulae: [drawing 4]
Color correct=O.D. 0 hr−Blank 0 hr)−(Solvent Control 0 hr−Blank 0 hr)
% Inhibition=100−O.D. test compound 4 hr−Blank 4 hr−color correct O.D. growth/solvent control 4 hr−Blank 4 hr

Point of comparison: Cc1ccc(C(=O)N2CCc3c(sc(NC(=O)c4ccc(Cl)cc4)c3C(=O)O)C2)c(C)c1, “% Inhibition” value 63.51%. Against it:
- CC(C)(C)c1ccc(C(=O)Nc2sc3c(c2C(=O)O)CCN(C(=O)C2CCC2)C3)cc1 — higher, 98.89%
- CCCSc1ncccc1C(=O)N1CCc2c(sc(NC(=O)c3ccccc3Cl)c2C(=O)O)C1 — higher, 94.82%
- O=C(Nc1sc2c(c1C(=O)O)CCN(C(=O)c1ccoc1)C2)c1ccccc1 — higher, 94.53%
- O=C(Nc1sc2c(c1C(=O)O)CCN(C(=O)CCc1ccc(F)c(F)c1)C2)c1ccccc1Cl — higher, 94.52%
- O=C(Nc1sc2c(c1C(=O)O)CCN(C(=O)c1ccsc1)C2)c1ccccc1 — higher, 93.59%
- O=C(Nc1sc2c(c1C(=O)O)CCN(C(=O)/C=C/c1ccc(Cl)cc1)C2)c1ccccc1 — higher, 93.13%
- Cc1ccsc1C(=O)N1CCc2c(sc(NC(=O)c3ccccc3)c2C(=O)O)C1 — higher, 93.13%
- Cc1ccc(C)c(CC(=O)N2CCc3c(sc(NC(=O)c4ccc(C(C)(C)C)cc4)c3C(=O)O)C2)c1 — higher, 92.67%
- CCC(C(=O)Nc1sc2c(c1C(=O)O)CCN(C(=O)c1ccccc1SC)C2)c1ccccc1 (stereo not drawn) — higher, 68.58%
- CC(C)(C)c1ccc(C(=O)Nc2sc3c(c2C(=O)O)CCN(C(=O)c2ccc(Cl)cc2)C3)cc1 — higher, 68.41%
- COc1ccc(OC)c(C(=O)N2CCc3c(sc(NC(=O)CC(C)CC(C)(C)C)c3C(=O)O)C2)c1 (stereo not drawn) — higher, 68.17%
- O=C(Nc1sc2c(c1C(=O)O)CCN(C(=O)C1CCC1)C2)c1ccc(Cl)cc1 — higher, 67.98%
- CCOc1ncccc1C(=O)N1CCc2c(sc(NC(=O)c3ccc(CC)cc3)c2C(=O)O)C1 — higher, 67.76%
- O=C(CCC1CCCC1)Nc1sc2c(c1C(=O)O)CCN(C(=O)/C=C/c1ccc(Cl)cc1)C2 — higher, 67.51%
- O=C(O)c1c(NC(=O)C2CCCCC2)sc2c1CCN(C(=O)/C=C/c1ccc(Cl)cc1)C2 — higher, 67.5%
- O=C(Nc1sc2c(c1C(=O)O)CCN(C(=O)c1cc3ccccc3s1)C2)c1ccccc1 — higher, 67.5%
- CCCc1ccc(C(=O)Nc2sc3c(c2C(=O)O)CCN(C(=O)c2ccc(Cl)cc2OC)C3)cc1 — higher, 67.49%
- CCc1ccc(C(=O)Nc2sc3c(c2C(=O)O)CCN(C(=O)c2cccc4ccccc24)C3)cc1 — higher, 67.43%
- Cc1ccc(C)c(CC(=O)N2CCc3c(sc(NC(=O)c4ccc5ccccc5c4)c3C(=O)O)C2)c1 — higher, 67.34%
- CSc1ccccc1C(=O)N1CCc2c(sc(NC(=O)c3ccccc3Cl)c2C(=O)O)C1 — higher, 67.09%
- O=C(Nc1sc2c(c1C(=O)O)CCN(C(=O)c1ccccc1C(F)(F)F)C2)c1ccc(Cl)cc1 — higher, 67.09%
- CCCSc1ncccc1C(=O)N1CCc2c(sc(NC(=O)c3ccc4ccccc4c3)c2C(=O)O)C1 — higher, 67.03%
- CCCc1ccc(C(=O)Nc2sc3c(c2C(=O)O)CCN(C(=O)C2CCCCC2)C3)cc1 — higher, 66.83%
- CCCSc1ncccc1C(=O)N1CCc2c(sc(NC(=O)c3ccc(Cl)cc3)c2C(=O)O)C1 — higher, 66.79%
- O=C(O)c1c(NC(=O)C2CCCCC2)sc2c1CCN(C(=O)CCc1ccc(F)c(F)c1)C2 — higher, 66.79%
- CCC(C(=O)Nc1sc2c(c1C(=O)O)CCN(C(=O)c1cc3ccccc3s1)C2)c1ccccc1 (stereo not drawn) — higher, 66.79%
- O=C(Nc1sc2c(c1C(=O)O)CCN(C(=O)c1ccsc1)C2)c1ccco1 — higher, 66.72%
- O=C(Nc1sc2c(c1C(=O)O)CCN(C(=O)c1ccc(F)cc1F)C2)c1ccc2ccccc2c1 — higher, 66.41%
- O=C(CCC1CCCC1)Nc1sc2c(c1C(=O)O)CCN(C(=O)c1ccc(Cl)cc1)C2 — higher, 66.09%
- O=C(Nc1sc2c(c1C(=O)O)CCN(C(=O)c1cccc3ccccc13)C2)c1ccccc1Cl — higher, 65.9%
- CC(C)C(=O)N1CCc2c(sc(NC(=O)c3ccc4ccccc4c3)c2C(=O)O)C1 — higher, 65.78%
- O=C(Nc1sc2c(c1C(=O)O)CCN(C(=O)CC1CCCC1)C2)c1ccco1 — higher, 65.78%
- CCCCOc1ccc(C(=O)Nc2sc3c(c2C(=O)O)CCN(C(=O)CC)C3)cc1 — higher, 65.64%
- O=C(CCC1CCCC1)Nc1sc2c(c1C(=O)O)CCN(C(=O)C1CCCCC1)C2 — higher, 65.37%
- CCc1ccc(C(=O)Nc2sc3c(c2C(=O)O)CCN(C(=O)C2CCC2)C3)cc1 — higher, 65.14%
- Cn1cc(C(=O)N2CCc3c(sc(NC(=O)CCC4CCCC4)c3C(=O)O)C2)c2ccccc21 — higher, 65.02%
- O=C(O)c1c(NC(=O)[C@]23C[C@H]4C[C@@H](C[C@H](C4)C2)C3)sc2c1CCN(C(=O)c1ccccc1C(F)(F)F)C2 — higher, 64.79%
- O=C(Nc1sc2c(c1C(=O)O)CCN(C(=O)c1ccc(F)cc1F)C2)c1ccccc1Cl — higher, 64.7%
- COc1cccc(C(=O)N2CCc3c(sc(NC(=O)c4ccc5ccccc5c4)c3C(=O)O)C2)c1OC — higher, 64.54%
- CSc1ncccc1C(=O)N1CCc2c(sc(NC(=O)c3ccc4ccccc4c3)c2C(=O)O)C1 — higher, 64.54%
- CCCc1ccc(C(=O)Nc2sc3c(c2C(=O)O)CCN(C(=O)c2ccccc2C(F)(F)F)C3)cc1 — higher, 64.51%
- COc1cccc(C(=O)Nc2sc3c(c2C(=O)O)CCN(C(=O)c2ccccc2SC)C3)c1 — higher, 64.5%
- CC(C)CC(=O)N1CCc2c(sc(NC(=O)c3ccc(C(C)(C)C)cc3)c2C(=O)O)C1 — higher, 64.48%
- CSc1ccccc1C(=O)N1CCc2c(sc(NC(=O)c3ccc(C(C)(C)C)cc3)c2C(=O)O)C1 — higher, 64.48%
- Cc1ccc(C(=O)N2CCc3c(sc(NC(=O)c4ccc(Cl)cc4)c3C(=O)O)C2)cn1 — higher, 64.41%
- O=C(Nc1sc2c(c1C(=O)O)CCN(C(=O)c1ccc(C(F)(F)F)cc1)C2)c1ccccc1Cl — higher, 64.41%
- CCCc1ccc(C(=O)Nc2sc3c(c2C(=O)O)CCN(C(=O)c2ccc(Cl)cc2)C3)cc1 — higher, 64.18%
- Cc1c(F)cccc1C(=O)N1CCc2c(sc(NC(=O)C3CCCCC3)c2C(=O)O)C1 — higher, 63.92%
- CCc1ccc(C(=O)Nc2sc3c(c2C(=O)O)CCN(C(=O)c2cccnc2SC)C3)cc1 — higher, 63.83%
- COc1cccc(C(=O)Nc2sc3c(c2C(=O)O)CCN(C(=O)c2cc4ccccc4s2)C3)c1 — higher, 63.77%
- O=C(Nc1sc2c(c1C(=O)O)CCN(C(=O)c1ccccc1Cl)C2)c1ccc2ccccc2c1 — higher, 63.6%
- CCc1ccc(C(=O)Nc2sc3c(c2C(=O)O)CCN(C(=O)C2CCCCC2)C3)cc1 — lower, 63.5%
- CC(CC(=O)Nc1sc2c(c1C(=O)O)CCN(C(=O)c1ccc(Cl)cc1)C2)CC(C)(C)C (stereo not drawn) — lower, 63.48%
- COc1ccccc1C(=O)Nc1sc2c(c1C(=O)O)CCN(C(=O)c1cccc(F)c1C)C2 — lower, 63.41%
- O=C(Nc1sc2c(c1C(=O)O)CCN(C(=O)c1ccc(C(F)(F)F)cc1)C2)c1ccc2ccccc2c1 — lower, 63.29%
- CCc1ccc(C(=O)Nc2sc3c(c2C(=O)O)CCN(C(=O)c2ccc(C(F)(F)F)cc2)C3)cc1 — lower, 63.17%
- CCC(=O)N1CCc2c(sc(NC(=O)c3ccc4ccccc4c3)c2C(=O)O)C1 — lower, 62.98%
- O=C(Nc1sc2c(c1C(=O)O)CCN(C(=O)c1ccccc1Cl)C2)c1ccc(Cl)cc1 — lower, 62.91%
- CCc1ccc(C(=O)Nc2sc3c(c2C(=O)O)CCN(C(=O)c2ccc(Cl)cc2OC)C3)cc1 — lower, 62.84%
- Cc1ccc(C(=O)N2CCc3c(sc(NC(=O)c4ccc5ccccc5c4)c3C(=O)O)C2)cn1 — lower, 62.67%
- Cc1c(F)cccc1C(=O)N1CCc2c(sc(NC(=O)c3ccccc3Cl)c2C(=O)O)C1 — lower, 62.62%
- CCC(C(=O)Nc1sc2c(c1C(=O)O)CCN(C(=O)c1cccc3ccccc13)C2)c1ccccc1 (stereo not drawn) — lower, 62.49%
- CSc1ncccc1C(=O)N1CCc2c(sc(NC(=O)c3ccco3)c2C(=O)O)C1 — lower, 62.35%
- COc1cccc(C(=O)Nc2sc3c(c2C(=O)O)CCN(C(=O)Cc2cc(C)ccc2C)C3)c1 — lower, 62.32%
- CCc1ccc(C(=O)Nc2sc3c(c2C(=O)O)CCN(C(=O)c2cn(C)c4ccccc24)C3)cc1 — lower, 62.19%
- Cc1ccsc1C(=O)N1CCc2c(sc(NC(=O)c3ccc(Cl)cc3)c2C(=O)O)C1 — lower, 62.02%
- COc1ccccc1C(=O)Nc1sc2c(c1C(=O)O)CCN(C(=O)Cc1cc(C)ccc1C)C2 — lower, 61.95%
- Cc1ccccc1C(=O)N1CCc2c(sc(NC(=O)[C@]34C[C@H]5C[C@@H](C[C@H](C5)C3)C4)c2C(=O)O)C1 — lower, 61.84%
- CCCSc1ncccc1C(=O)N1CCc2c(sc(NC(=O)c3ccccc3OC)c2C(=O)O)C1 — lower, 61.59%
- CCCc1ccc(C(=O)Nc2sc3c(c2C(=O)O)CCN(C(=O)CC2CCCC2)C3)cc1 — lower, 61.53%
- O=C(CCC1CCCC1)Nc1sc2c(c1C(=O)O)CCN(C(=O)c1ccc(F)c(F)c1)C2 — lower, 61.45%
- CC(C)(C)c1ccc(C(=O)Nc2sc3c(c2C(=O)O)CCN(C(=O)c2ccoc2)C3)cc1 — lower, 61.2%
- CCCc1ccc(C(=O)Nc2sc3c(c2C(=O)O)CCN(C(=O)c2ccc(C)cc2C)C3)cc1 — lower, 61.2%
- O=C(Nc1sc2c(c1C(=O)O)CCN(C(=O)c1ccc(F)c(F)c1)C2)c1ccccc1Cl — lower, 61.26%
- COc1cccc(C(=O)N2CCc3c(sc(NC(=O)C4CCCCC4)c3C(=O)O)C2)c1OC — lower, 61.06%
- CCc1ccc(C(=O)Nc2sc3c(c2C(=O)O)CCN(C(=O)c2sccc2C)C3)cc1 — lower, 60.88%
- COc1ccccc1C(=O)Nc1sc2c(c1C(=O)O)CCN(C(=O)CCc1ccc(F)c(F)c1)C2 — lower, 60.86%
